For one molecule, cell death results are on record in US20080003226A1, “Method to Reduce Hepatoxicity of Fas-Mediated Apoptosis-Inducing Agents” (APOXIS SA, priority 2004, published 2008).

This assay has as its system mesothelioma and ovarian cancer cell lines. Put plainly: Cytotoxicity of MegaFasL as single agent and in combination with cisplatin in vitro. It counts as cell-based. Conditions: compound alone. As for the experimental part: Use of the Fas-mediated apoptosis inducing agents defined above and more particularly hexamers of the soluble fraction of FasL as defined above as an adjuvant with existing chemotherapies is another embodiment of the present invention. […] Actually, the antitumor effectiveness of MegaFasL as single agent and in combination with cisplatin was evaluated first on mesothelioma and ovarian cancer cell lines in vitro.

`N.N.[Cl][Pt][Cl]` [cisplatin]: the cell death entry is “only marginal cell death”.
